Assay: Inhibition of STAT5b in mouse BaF3/FLT3-ITD cells assessed as reduction in cell proliferation

Structure (SMILES) | IC50 [µM]
O=C(O)c1nonc1NCn1nnnc1Cc1ccccc1 | 76
COC(=O)c1nonc1NCn1cnnn1 | 25
O=C(O)c1nonc1NCn1cnnn1 | 153

— BindingDB's records for doi:10.1021/acs.jmedchem.9b01183 (Univ. Lille, 2020)
